The numbers were not newly measured in patent US20250268834A1, “IONIC LIQUID SALTS OF ACTIVE PHARMACEUTICAL INGREDIENTS” (GlaxoSmithKline Consumer Healthcare Holdings (US) LLC, priority 2021, published 2025), which cites them from elsewhere.

The structures appear in SMILES notation.

For the series the following is noted: hydrolysis of amide to 4-aminophenol in liquids.

For `CC(=O)Nc1ccc(O)cc1` [APAP, acetaminophen], the “pH with lowest hydrolysis levels of APAP” value was 5-6.
